In ChEMBL document CHEMBL1629620 (Antimicrob Agents Chemother, 2009):

Test system: Vaccinia virus
Test: Antiviral activity against J2R gene deficient Vaccinia virus harboring VVTK::luc infected in HFF assessed as reduction of plaque formation after 3 days
Type: functional, organism-based
Details: Orthopoxvirus vaccinia, 72 h

Going from `O=c1[nH]c(=O)n([C@H]2C[C@H](O)[C@@H](CO)O2)cc1I` [IDOXURIDINE] to `O=c1[nH]c(=O)n([C@H]2C[C@H](O)[C@@H](CO)S2)cc1I`, the EC50 falls from 7.1 µM to 0.3 µM (24-fold).

`Nc1ccn(C[C@@H](CO)OCP(=O)(O)O)c(=O)n1.O.O` [CIDOFOVIR] was tested, and the EC50 was 9.4 µM.
